{"source": "ChEMBL document CHEMBL4665648", "about": "“Potent and selective inhibitors of receptor-interacting protein kinase 1 that lack an aromatic back pocket group” (Bioorg Med Chem Lett, 2019)", "key": {"[1]": {"target": "Protein kinase C zeta type (Homo sapiens) (UniProt Q05513)", "test": "Inhibition of recombinant human untagged full length PKCzeta expressed in baculovirus expression system using Ser/Thr 07 as substrate at 10 uM incubated for 60 mins by Z'-lyte assay relative to control"}, "[2]": {"target": "Vascular endothelial growth factor receptor 2 (Homo sapiens) (UniProt P35968)", "test": "Inhibition of recombinant human His-tagged KDR (789 to 1356 residues) expressed in baculovirus expression system using Tyr 01 as substrate at 10 uM incubated for 60 mins by Z'-lyte assay relative to control"}, "[3]": {"target": "Calcium/calmodulin-dependent protein kinase type IV (Homo sapiens) (UniProt Q16566)", "test": "Inhibition of recombinant human GST-tagged full length CAMK4 expressed in Escherichia coli expression system using Ser/Thr 13 as substrate at 10 uM incubated for 60 mins by Z'-Lyte assay relative to control"}, "[4]": {"target": "Tyrosine-protein kinase receptor UFO (Homo sapiens) (UniProt P30530)", "sequence (P30530 whole entry)": "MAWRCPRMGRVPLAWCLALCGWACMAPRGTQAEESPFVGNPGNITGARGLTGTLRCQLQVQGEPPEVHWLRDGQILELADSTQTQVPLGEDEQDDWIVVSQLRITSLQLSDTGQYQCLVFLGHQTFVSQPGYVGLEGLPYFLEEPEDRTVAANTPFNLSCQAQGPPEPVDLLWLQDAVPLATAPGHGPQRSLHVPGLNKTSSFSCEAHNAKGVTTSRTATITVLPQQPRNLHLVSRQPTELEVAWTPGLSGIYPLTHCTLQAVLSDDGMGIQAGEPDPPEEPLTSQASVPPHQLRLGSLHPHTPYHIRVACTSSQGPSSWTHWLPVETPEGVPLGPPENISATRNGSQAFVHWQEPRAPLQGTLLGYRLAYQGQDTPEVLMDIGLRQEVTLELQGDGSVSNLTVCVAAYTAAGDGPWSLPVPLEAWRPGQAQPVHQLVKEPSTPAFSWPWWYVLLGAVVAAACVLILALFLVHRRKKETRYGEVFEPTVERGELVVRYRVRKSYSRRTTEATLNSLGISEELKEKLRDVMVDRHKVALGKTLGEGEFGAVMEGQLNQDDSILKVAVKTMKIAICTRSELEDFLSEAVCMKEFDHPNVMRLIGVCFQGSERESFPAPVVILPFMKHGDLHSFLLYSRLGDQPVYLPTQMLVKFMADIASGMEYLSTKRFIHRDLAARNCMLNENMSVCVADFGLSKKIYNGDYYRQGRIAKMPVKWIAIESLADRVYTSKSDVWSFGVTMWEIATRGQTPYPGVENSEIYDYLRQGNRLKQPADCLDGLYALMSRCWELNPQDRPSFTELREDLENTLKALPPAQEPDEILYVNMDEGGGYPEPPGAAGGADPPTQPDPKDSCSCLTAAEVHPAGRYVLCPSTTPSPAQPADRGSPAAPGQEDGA", "test": "Inhibition of recombinant human GST-tagged full length AXL expressed in insect expression system using Tyr 06 as substrate at 10 uM incubated for 60 mins by Z'-Lyte assay relative to control"}, "[5]": {"target": "Ribosomal protein S6 kinase alpha-5 (Homo sapiens) (UniProt O75582)", "test": "Inhibition of recombinant human GST-tagged full length MSK1 expressed in baculovirus expression system using Ser/Thr 01 as substrate at 10 uM incubated for 60 mins by Z'-lyte assay relative to control"}, "[6]": {"target": "BDNF/NT-3 growth factors receptor (Homo sapiens) (UniProt Q16620)", "sequence (Q16620 32-822 limits assumed)": "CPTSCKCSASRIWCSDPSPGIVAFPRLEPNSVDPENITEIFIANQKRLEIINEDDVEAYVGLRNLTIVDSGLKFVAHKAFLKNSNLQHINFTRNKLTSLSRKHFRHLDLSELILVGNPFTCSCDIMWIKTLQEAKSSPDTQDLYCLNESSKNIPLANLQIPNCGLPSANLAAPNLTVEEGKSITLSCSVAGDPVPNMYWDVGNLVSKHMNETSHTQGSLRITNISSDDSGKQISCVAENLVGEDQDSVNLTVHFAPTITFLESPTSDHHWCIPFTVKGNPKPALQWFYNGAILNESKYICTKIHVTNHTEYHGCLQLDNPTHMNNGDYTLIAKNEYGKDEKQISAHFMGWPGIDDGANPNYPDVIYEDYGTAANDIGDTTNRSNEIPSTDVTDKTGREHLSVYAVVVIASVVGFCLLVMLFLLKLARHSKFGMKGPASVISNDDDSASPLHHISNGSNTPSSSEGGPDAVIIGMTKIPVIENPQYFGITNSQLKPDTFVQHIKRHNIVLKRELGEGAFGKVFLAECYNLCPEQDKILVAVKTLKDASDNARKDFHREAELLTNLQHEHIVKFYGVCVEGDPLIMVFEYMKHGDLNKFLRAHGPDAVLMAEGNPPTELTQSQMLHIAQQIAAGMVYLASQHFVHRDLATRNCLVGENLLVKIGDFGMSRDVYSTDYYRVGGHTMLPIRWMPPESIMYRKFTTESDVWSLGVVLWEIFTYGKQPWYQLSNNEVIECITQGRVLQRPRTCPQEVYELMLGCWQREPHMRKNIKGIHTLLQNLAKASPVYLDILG", "test": "Inhibition of recombinant human His-tagged TRKB (526 to 838 residues) expressed in baculovirus expression system using Tyr 01 as substrate at 10 uM incubated for 60 mins by Z'-Lyte assay relative to control"}, "[7]": {"target": "Protein kinase C delta type (Homo sapiens) (UniProt Q05655)", "test": "Inhibition of recombinant human GST-tagged full length PKCdelta expressed in insect expression system using Ser/Thr 07 as substrate at 10 uM incubated for 60 mins by Z'-lyte assay relative to control"}, "[8]": {"test": "Kinetic solubility of compound at pH 7.4", "type": "physicochemical", "details": "buffer, read-out: Kinetic_solubility"}, "[9]": {"target": "Calcium/calmodulin-dependent protein kinase kinase 2 (Homo sapiens) (UniProt Q96RR4)", "test": "Inhibition of tracer 236 binding to recombinant human GST-tagged full length CAMKK2 expressed in baculovirus expression system at 10 uM incubated for 60 mins by Lanthascreen assay relative to control"}, "[10]": {"target": "STE20-like serine/threonine-protein kinase (Homo sapiens) (UniProt Q9H2G2)", "sequence (Q9H2G2 whole entry, looked up)": "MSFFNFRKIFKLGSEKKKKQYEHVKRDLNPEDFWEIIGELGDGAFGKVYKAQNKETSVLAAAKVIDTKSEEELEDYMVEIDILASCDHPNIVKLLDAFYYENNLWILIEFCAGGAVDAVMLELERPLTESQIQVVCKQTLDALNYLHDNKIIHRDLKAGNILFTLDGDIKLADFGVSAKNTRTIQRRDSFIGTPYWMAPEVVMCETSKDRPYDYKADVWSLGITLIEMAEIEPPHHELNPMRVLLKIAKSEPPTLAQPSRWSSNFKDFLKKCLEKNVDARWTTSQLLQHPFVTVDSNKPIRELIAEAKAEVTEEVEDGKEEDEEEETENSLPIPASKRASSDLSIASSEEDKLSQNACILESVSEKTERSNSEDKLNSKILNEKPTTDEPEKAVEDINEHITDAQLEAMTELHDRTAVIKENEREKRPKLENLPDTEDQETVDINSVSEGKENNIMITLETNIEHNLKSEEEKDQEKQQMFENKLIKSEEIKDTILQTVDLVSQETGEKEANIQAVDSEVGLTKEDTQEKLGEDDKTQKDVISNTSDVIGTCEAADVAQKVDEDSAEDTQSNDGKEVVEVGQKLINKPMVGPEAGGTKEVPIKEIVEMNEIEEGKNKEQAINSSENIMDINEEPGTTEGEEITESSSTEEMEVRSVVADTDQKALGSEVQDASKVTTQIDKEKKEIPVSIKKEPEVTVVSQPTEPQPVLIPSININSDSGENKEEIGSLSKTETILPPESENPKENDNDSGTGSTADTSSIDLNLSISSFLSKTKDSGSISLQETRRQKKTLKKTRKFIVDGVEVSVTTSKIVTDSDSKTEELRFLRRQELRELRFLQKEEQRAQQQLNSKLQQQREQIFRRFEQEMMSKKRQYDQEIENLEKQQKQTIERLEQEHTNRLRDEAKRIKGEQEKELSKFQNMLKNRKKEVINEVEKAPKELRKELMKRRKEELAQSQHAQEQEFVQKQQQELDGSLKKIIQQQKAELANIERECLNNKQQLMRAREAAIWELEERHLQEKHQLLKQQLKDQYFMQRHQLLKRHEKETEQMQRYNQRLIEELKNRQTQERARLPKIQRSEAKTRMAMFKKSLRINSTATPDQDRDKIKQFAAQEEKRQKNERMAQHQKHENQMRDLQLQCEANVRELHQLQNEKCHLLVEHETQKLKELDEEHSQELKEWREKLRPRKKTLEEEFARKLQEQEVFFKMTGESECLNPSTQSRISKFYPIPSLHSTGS", "test": "Inhibition of tracer 236 binding to recombinant human GST-tagged full length SLK expressed in baculovirus expression system at 10 uM incubated for 60 mins by Lanthascreen assay relative to control"}, "[11]": {"target": "cAMP-dependent protein kinase catalytic subunit PRKX (Homo sapiens) (UniProt P51817)", "test": "Inhibition of recombinant human GST-tagged full length PRKX expressed in baculovirus expression system using Ser/Thr 01 as substrate at 10 uM incubated for 60 mins by Z'-lyte assay relative to control"}, "[12]": {"target": "Mitogen-activated protein kinase 13 (Homo sapiens) (UniProt O15264)", "sequence (O15264 whole entry)": "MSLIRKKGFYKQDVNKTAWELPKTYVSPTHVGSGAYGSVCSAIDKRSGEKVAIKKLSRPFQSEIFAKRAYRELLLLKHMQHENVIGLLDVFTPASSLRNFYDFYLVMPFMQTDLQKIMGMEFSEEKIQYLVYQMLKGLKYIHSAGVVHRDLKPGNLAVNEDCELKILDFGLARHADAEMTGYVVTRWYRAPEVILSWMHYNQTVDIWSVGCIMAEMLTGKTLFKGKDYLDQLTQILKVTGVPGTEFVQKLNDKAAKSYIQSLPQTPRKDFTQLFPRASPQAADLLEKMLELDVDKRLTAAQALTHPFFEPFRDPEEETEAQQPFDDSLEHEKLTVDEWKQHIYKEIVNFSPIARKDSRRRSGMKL", "test": "Inhibition of recombinant human His-tagged full length p38 delta expressed in baculovirus expression system using Ser/Thr 03 as substrate at 10 uM incubated for 60 mins by Z'-Lyte assay relative to control"}, "[13]": {"target": "Serine/threonine-protein kinase PAK 3 (Homo sapiens) (UniProt O75914)", "test": "Inhibition of recombinant human His-tagged full length PAK3 expressed in baculovirus expression system using Ser/Thr 20 as substrate at 10 uM incubated for 60 mins by Z'-lyte assay relative to control"}, "[14]": {"tested_on": "Epidermal growth factor receptor (Homo sapiens), P00533 [L858R,T790M]", "test": "Inhibition of recombinant human GST-tagged EGFR T790M/L858R double mutant (668 to 1210 residues) expressed in baculovirus expression system using Tyr 4 as substrate at 10 uM incubated for 60 mins by Z'-Lyte assay relative to control"}, "[15]": {"target": "Ephrin type-B receptor 1 (Homo sapiens) (UniProt P54762)", "sequence (P54762 whole entry, the tested form may be a part)": "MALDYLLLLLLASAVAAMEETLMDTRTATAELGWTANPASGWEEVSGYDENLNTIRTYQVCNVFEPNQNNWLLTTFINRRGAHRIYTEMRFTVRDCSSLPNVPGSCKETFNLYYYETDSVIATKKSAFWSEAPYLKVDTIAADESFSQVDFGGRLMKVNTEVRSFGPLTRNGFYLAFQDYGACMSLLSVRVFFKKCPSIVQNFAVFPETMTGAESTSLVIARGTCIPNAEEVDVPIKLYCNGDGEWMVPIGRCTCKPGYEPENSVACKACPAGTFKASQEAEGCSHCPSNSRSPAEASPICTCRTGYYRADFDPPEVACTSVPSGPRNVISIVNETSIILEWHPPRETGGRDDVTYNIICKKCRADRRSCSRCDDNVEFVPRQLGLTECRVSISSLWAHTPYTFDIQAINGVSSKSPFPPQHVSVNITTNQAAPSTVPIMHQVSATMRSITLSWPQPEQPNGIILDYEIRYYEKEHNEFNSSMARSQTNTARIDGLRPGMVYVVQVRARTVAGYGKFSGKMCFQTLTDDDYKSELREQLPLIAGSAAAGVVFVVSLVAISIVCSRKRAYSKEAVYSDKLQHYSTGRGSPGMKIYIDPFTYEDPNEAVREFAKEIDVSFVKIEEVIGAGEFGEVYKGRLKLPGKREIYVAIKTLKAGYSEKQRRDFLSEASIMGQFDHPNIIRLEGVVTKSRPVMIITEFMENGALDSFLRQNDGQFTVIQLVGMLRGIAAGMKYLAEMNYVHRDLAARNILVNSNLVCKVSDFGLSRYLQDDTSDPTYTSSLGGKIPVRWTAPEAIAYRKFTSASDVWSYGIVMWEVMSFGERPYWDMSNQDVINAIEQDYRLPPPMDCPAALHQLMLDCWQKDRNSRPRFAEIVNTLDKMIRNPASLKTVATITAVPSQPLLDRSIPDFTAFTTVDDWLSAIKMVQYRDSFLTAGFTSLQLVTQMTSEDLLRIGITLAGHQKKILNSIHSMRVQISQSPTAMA", "test": "Inhibition of recombinant human GST-tagged EPHB1 (613 to 881 residues) expressed in baculovirus expression system using Tyr 02 as substrate at 10 uM incubated for 60 mins by Z'-Lyte assay relative to control"}, "[16]": {"target": "Tyrosine-protein kinase ITK/TSK (Homo sapiens) (UniProt Q08881)", "test": "Inhibition of recombinant human GST-tagged full length ITK expressed in baculovirus expression system using Tyr 04 as substrate at 10 uM incubated for 60 mins by Z'-lyte assay relative to control"}, "[17]": {"target": "Inhibitor of nuclear factor kappa-B kinase subunit beta (Homo sapiens) (UniProt O14920)", "test": "Inhibition of recombinant human GST-tagged full length IKKbeta expressed in baculovirus expression system using Ser/Thr 05 as substrate at 10 uM incubated for 60 mins by Z'-Lyte assay relative to control"}, "[18]": {"target": "Serine/threonine-protein kinase TAO2 (Homo sapiens) (UniProt Q9UL54)", "test": "Inhibition of recombinant human GST-tagged TAO2 (1 to 314 residues) expressed in baculovirus expression system using Ser/Thr 07 as substrate at 10 uM incubated for 60 mins by Z'-Lyte assay relative to control"}, "[19]": {"target": "Ribosomal protein S6 kinase alpha-2 (Homo sapiens) (UniProt Q15349)", "test": "Inhibition of recombinant human GST-tagged full length RSK3 expressed in insect expression system using Ser/Thr 06 as substrate at 10 uM incubated for 60 mins by Z'-Lyte assay relative to control"}, "[20]": {"target": "Serine/threonine-protein kinase Nek9 (Homo sapiens) (UniProt Q8TD19)", "test": "Inhibition of recombinant human GST-tagged NEK9 (347 to 732 residues) expressed in baculovirus expression system using Ser/Thr 07 as substrate at 10 uM incubated for 60 mins by Z'-lyte assay relative to control"}, "[21]": {"target": "Cyclin-dependent kinase 1/cyclin B1 (Homo sapiens) (UniProt P06493+P14635)", "test": "Inhibition of recombinant human His-tagged full length CDK1/Cyclin B expressed in baculovirus expression system using Ser/Thr 18 as substrate at 10 uM incubated for 60 mins by Z'-Lyte assay relative to control"}, "[22]": {"target": "Megakaryocyte-associated tyrosine-protein kinase (Homo sapiens) (UniProt P42679)", "sequence (P42679 whole entry)": "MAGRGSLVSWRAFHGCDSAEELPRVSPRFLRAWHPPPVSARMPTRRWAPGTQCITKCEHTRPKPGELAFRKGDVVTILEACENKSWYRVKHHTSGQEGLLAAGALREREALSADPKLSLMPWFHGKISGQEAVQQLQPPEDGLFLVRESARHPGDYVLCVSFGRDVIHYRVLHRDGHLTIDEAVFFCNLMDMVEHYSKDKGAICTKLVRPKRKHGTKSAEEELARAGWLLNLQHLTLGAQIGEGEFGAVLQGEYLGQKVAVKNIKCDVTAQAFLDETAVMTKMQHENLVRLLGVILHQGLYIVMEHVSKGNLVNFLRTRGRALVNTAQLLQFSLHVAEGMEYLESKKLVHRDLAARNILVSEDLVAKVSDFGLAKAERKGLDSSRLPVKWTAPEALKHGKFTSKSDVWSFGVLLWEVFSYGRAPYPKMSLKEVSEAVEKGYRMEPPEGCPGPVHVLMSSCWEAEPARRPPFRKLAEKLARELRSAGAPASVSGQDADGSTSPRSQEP", "test": "Inhibition of recombinant human His-tagged full length Hyl expressed in Escherichia coli expression system using Tyr 01 as substrate at 10 uM incubated for 60 mins by Z'-Lyte assay relative to control"}, "[23]": {"target": "Fibroblast growth factor receptor 3 (Homo sapiens) (UniProt P22607)", "test": "Inhibition of recombinant human His-tagged FGFR3 (399 to 806 residues) expressed in baculovirus expression system using Tyr 04 as substrate at 10 uM incubated for 60 mins by Z'-Lyte assay relative to control"}, "[24]": {"target": "Dual specificity tyrosine-phosphorylation-regulated kinase 3 (Homo sapiens) (UniProt O43781)", "test": "Inhibition of recombinant human GST-tagged full length DYRK3 expressed in baculovirus expression system using Ser/Thr 9 as substrate at 10 uM incubated for 60 mins by Z'-Lyte assay relative to control"}}}
{"smiles": "CN1C(=O)[C@@H](NC(=O)c2n[nH]c3ncc(C(F)(F)C(F)(F)F)cc23)COc2ccccc21", "values": [{"measurement": "inhibition", "setting": "[1]", "result": 5.5, "unit": "%"}, {"measurement": "inhibition", "setting": "[2]", "result": 8, "unit": "%"}, {"measurement": "inhibition", "setting": "[3]", "result": -2, "unit": "%"}, {"measurement": "inhibition", "setting": "[4]", "result": 6.5, "unit": "%"}, {"measurement": "inhibition", "setting": "[5]", "result": -1, "unit": "%"}, {"measurement": "inhibition", "setting": "[6]", "result": 0.5, "unit": "%"}, {"measurement": "inhibition", "setting": "[7]", "result": 0.5, "unit": "%"}, {"measurement": "solubility kinetic", "setting": "[8]", "result": 17, "unit": "µM"}, {"measurement": "inhibition", "setting": "[9]", "result": 2, "unit": "%"}, {"measurement": "inhibition", "setting": "[10]", "result": 5, "unit": "%"}, {"measurement": "inhibition", "setting": "[11]", "result": 4.5, "unit": "%"}, {"measurement": "inhibition", "setting": "[12]", "result": 5.5, "unit": "%"}, {"measurement": "inhibition", "setting": "[13]", "result": 8, "unit": "%"}, {"measurement": "inhibition", "setting": "[14]", "result": 7, "unit": "%"}, {"measurement": "inhibition", "setting": "[15]", "result": 2, "unit": "%"}, {"measurement": "inhibition", "setting": "[16]", "result": -2, "unit": "%"}, {"measurement": "inhibition", "setting": "[17]", "result": 0.5, "unit": "%"}, {"measurement": "inhibition", "setting": "[18]", "result": 5, "unit": "%"}, {"measurement": "inhibition", "setting": "[19]", "result": -4.5, "unit": "%"}, {"measurement": "inhibition", "setting": "[20]", "result": 3, "unit": "%"}, {"measurement": "inhibition", "setting": "[21]", "result": 3, "unit": "%"}, {"measurement": "inhibition", "setting": "[22]", "result": 3.5, "unit": "%"}, {"measurement": "inhibition", "setting": "[23]", "result": 0.5, "unit": "%"}, {"measurement": "inhibition", "setting": "[24]", "result": 7, "unit": "%"}]}
